Each compound was assayed against T1, MMP-13 (Homo sapiens, UniProt P45452) (assay: Assay for inhibitory activities on MMP-13). Details: not given.
T1 construct: catalytic domain (^104Tyr˜^267Gly) was amplified with RT-PCR; His-tag; enterokinase digestion-site; made in house
Type: biochemical
Protocol: In regard to MMP-13, mRNA was prepared from carcinoma cell SW1353 derived from human cartilage stimulate by IL-1, TNF and catalytic domain (^[…]) was amplified with RT-PCR. This was cloned in Escherichia. coli expression vector […] inserted with His-tag sequence and enterokinase digestion-site, induced and expressed by IPTG (Isopropyl-β-D-thiogalactopyranoside) and expressed in a insoluble fraction. Isolation of MMP-13 from an insoluble fraction was carried out by dissolving in modifier (6M urea) by a usual method and purification with metal chelate chromatography (Ni […] Sepharose). […] The enzymatic activity on MMP was analyzed by the method described in “C. Graham Knight, Frances Willenbrock and Gillian Murphy: A novel coumarin-labelled peptide for sensitive continuous assays of the matrix metalloproteinases: […] The substrate: MOCAc-[…] was purchased from Peptide Institute, Inc., Osaka, Japan.

| SMILES | IC50 [µM] |
| --- | --- |
| O=C(O)[C@@H](Cc1ccccc1)NS(=O)(=O)c1ccc(-c2ccc(C#Cc3ccc4ccccc4c3)cc2)cc1 [Compound E-29] | 0.00992 |

Same assay, conditions: catalytic domain, substrate MOCAc-Pro-Leu-Gly-Leu-A2Pr(DNP)-Ala-Arg-NH2; read-out: MMP-13 (IC50μM)

| SMILES | IC50 [µM] |
| --- | --- |
| O=C(O)[C@@H](Cc1c[nH]c2ccccc12)NS(=O)(=O)c1ccc(-c2ccc(F)cc2)cc1 [Compound E-27] | 0.036 |
| C[C@@H](NS(=O)(=O)c1ccc(-c2ccc(-c3ccc4ccccc4c3)cc2)cc1)C(=O)O [Compound E-28] | 0.012 |
| CSc1ccc(-c2ccc(S(=O)(=O)NC(Cc3ccccc3)C(=O)O)cc2)cc1 (stereo not shown) [Compound E-30] | 0.0026 |
| COc1ccc(-c2ccc(S(=O)(=O)NC(C(=O)O)C(C)C)s2)cc1 (stereo not shown) [Compound F-2] | 0.53 |
| CSCC[C@@H](NS(=O)(=O)c1ccc(-c2ccc(SC)cc2)s1)C(=O)O [Compound F-3] | 0.007 |
| CSc1ccc(-c2ccc(S(=O)(=O)NC(CC(C)C)C(=O)O)s2)cc1 (stereo not shown) [Compound F-4] | 0.0094 |
| CCOc1ccc(-c2ccc(S(=O)(=O)NC(CC(C)C)C(=O)O)s2)cc1 (stereo not shown) [Compound F-5] | 0.0183 |
| COc1ccc(-c2ccc(S(=O)(=O)N[C@H](CCSC)C(=O)O)s2)cc1 [Compound F-6] | 0.0376 |
| O=C(O)[C@H](Cc1c[nH]c2ccccc12)NS(=O)(=O)c1ccc(-c2ccc(N3CCCC3)cc2)s1 [Compound F-7] | 0.043 |
| COc1ccc(-c2ccc(S(=O)(=O)N[C@H](Cc3c[nH]c4ccccc34)C(=O)O)s2)cc1 [Compound F-9] | 0.0036 |
| Cc1ccc(-c2ccc(S(=O)(=O)N[C@H](Cc3c[nH]c4ccccc34)C(=O)O)s2)cc1 [Compound F-10] | 0.21 |
| CN(C)c1ccc(-c2ccc(S(=O)(=O)N[C@H](Cc3c[nH]c4ccccc34)C(=O)O)s2)cc1 [Compound F-11] | 0.00047 |
| CNc1ccc(-c2ccc(S(=O)(=O)N[C@H](Cc3ccccc3)C(=O)O)s2)cc1 [Compound F-12] | 0.0318 |
| O=C(O)CNS(=O)(=O)c1ccc(-c2ccc(N3CCCC3)cc2)s1 [Compound F-13] | 0.033 |
| O=C(O)[C@@H](Cc1ccccc1)NS(=O)(=O)c1ccc(-c2ccc(-n3cccc3)cc2)s1 [Compound F-14] | 0.0104 |
| C[C@@H](NS(=O)(=O)c1ccc(-c2ccc(-n3cccc3)cc2)s1)C(=O)O [Compound F-15] | 0.023 |
| CC(C)C[C@@H](NS(=O)(=O)c1ccc(-c2ccc(N3CCCCC3)cc2)s1)C(=O)O [Compound F-16] | 0.25 |
| O=C(O)[C@H](NS(=O)(=O)c1ccc(-c2ccc(N3CCCC3)cc2)s1)c1ccc(O)cc1 [Compound F-17] | 0.0037 |
| CC(C)[C@H](NS(=O)(=O)c1ccc(-c2ccc(N3CCCC3)cc2)s1)C(=O)O [Compound F-18] | 0.032 |
| Cc1ccc(-c2ccc(S(=O)(=O)N[C@@H](Cc3c[nH]c4ccccc34)C(=O)O)s2)cc1 [Compound F-19] | 0.63 |
| Cc1ccc(-c2ccc(S(=O)(=O)NC(C(=O)O)C(C)C)s2)cc1 (stereo not shown) [Compound F-20] | 0.811 |
| CNc1ccc(-c2ccc(S(=O)(=O)NC(C(=O)O)C(C)C)s2)cc1 (stereo not shown) [Compound F-21] | 1.26 |
| CNc1ccc(-c2ccc(S(=O)(=O)N[C@@H](Cc3ccccc3)C(=O)O)s2)cc1 [Compound F-22] | 0.854 |
| CSc1ccc(-c2ccc(S(=O)(=O)NC(Cc3ccccc3)C(=O)O)s2)cc1 (stereo not shown) [Compound F-24] | 0.0831 |
| CSCC[C@H](NS(=O)(=O)c1ccc(-c2ccc(C(C)=O)cc2)s1)C(=O)O [Compound F-25] | 0.106 |
| C=Cc1ccc(-c2ccc(S(=O)(=O)N[C@@H](C(=O)O)C(C)C)s2)cc1 [Compound F-26] | 0.0101 |
| O=C(O)[C@H](Cc1c[nH]c2ccccc12)NS(=O)(=O)c1ccc(C#Cc2ccc3ccccc3c2)cc1 [Compound G-6] | 0.893 |

Other lines, results leading:

| IC50 [µM] | SMILES |
| --- | --- |
| 0.046 | CC(=O)Oc1ccc(C#Cc2ccc(S(=O)(=O)N[C@H](Cc3c[nH]c4ccccc34)C(=O)O)cc2)cc1 [Compound G-1] |
| 0.015 | C#Cc1ccc(C#Cc2ccc(S(=O)(=O)N[C@H](Cc3c[nH]c4ccccc34)C(=O)O)cc2)cc1 [Compound G-2] |
| > 10 | CC(C)[C@@H](NS(=O)(=O)c1ccc(C#Cc2ccc(O)cc2)cc1)C(=O)O [Compound G-3] |
| > 10 | Cc1ccc(C#Cc2ccc(S(=O)(=O)N[C@H](Cc3ccccc3)C(=O)O)cc2[N+](=O)[O-])cc1 [Compound G-4] |
| > 10 | O=C(O)[C@@H](Cc1ccccc1)NS(=O)(=O)c1ccc(C#Cc2ccc3ccccc3c2)cc1 [Compound G-5] |
| 0.0366 | O=C(O)[C@H](Cc1ccccc1)NS(=O)(=O)c1ccc(C#Cc2ccc3c(c2)OCO3)cc1 [Compound G-9] |
| 0.147 | O=C(O)[C@H](CO)NS(=O)(=O)c1ccc(C#Cc2ccc3c(c2)OCO3)cc1 [Compound G-12] |
| 1.09 | CC(C)C[C@@H](NS(=O)(=O)c1ccc(C#Cc2ccc3[nH]c(=O)sc3c2)cc1)C(=O)O [Compound G-15] |
| 0.044 | O=C(O)[C@@H](Cc1ccccc1)NS(=O)(=O)c1ccc(C#Cc2ccc3c(c2)OCO3)s1 [Compound H-1] |
| > 10 | O=C(O)[C@@H](Cc1ccccc1)NS(=O)(=O)c1ccc(C#Cc2ccc3ccccc3c2)s1 [Compound H-2] |
| 6 | O=C(O)c1ccc(C#Cc2ccc(S(=O)(=O)N[C@H](Cc3ccccc3)C(=O)O)s2)cc1 [Compound H-3] |
| 0.0328 | Cc1ccc(C#Cc2ccc(S(=O)(=O)N[C@H](Cc3c[nH]c4cccc(O)c34)C(=O)O)s2)cc1 [Compound H-5] |
| 0.0113 | Cc1ccc(C#Cc2ccc(S(=O)(=O)N[C@H](Cc3c[nH]c4c(O)cccc34)C(=O)O)s2)cc1 [Compound H-6] |
| > 10 | O=C(O)[C@@H](Cc1ccccc1)NS(=O)(=O)c1ccc(C#Cc2cccc3ccccc23)s1 [Compound H-7] |
| 0.151 | Cc1ccc(C#Cc2ccc(S(=O)(=O)N[C@H](CCC(=O)O)C(=O)O)s2)cc1 [Compound H-8] |
| > 10 | O=C(O)[C@H](Cc1ccccc1)NS(=O)(=O)c1ccc(C#Cc2ccc3ccccc3c2)s1 [Compound H-9] |
| 1.37 | CC(C)C[C@@H](NS(=O)(=O)c1ccc(C#Cc2ccc3ccccc3c2)s1)C(=O)O [Compound H-10] |
| 0.573 | C[C@@H](NS(=O)(=O)c1ccc(C#Cc2ccc(F)c(F)c2)s1)C(=O)O [Compound H-11] |
| 0.15 | COc1ccc2cc(C#Cc3ccc(S(=O)(=O)N[C@H](Cc4ccccc4)C(=O)O)s3)ccc2c1 [Compound H-12] |
| 0.0604 | Cc1ccc(C#Cc2ccc(S(=O)(=O)N[C@H](Cc3ccccc3)C(=O)O)s2)cc1F [Compound H-13] |
| 0.153 | O=C(O)[C@@H](Cc1ccccc1)NS(=O)(=O)c1ccc(C#CC2=CCCCC2)s1 [Compound H-14] |

| IC50 [µM] | SMILES |
| --- | --- |
| 0.036 | O=C(O)[C@@H](Cc1ccccc1)NS(=O)(=O)c1ccc(-c2nnn(-c3ccc(Br)cc3)n2)cc1 [Compound I-1] |
| 0.01 | CC(=O)NCCc1ccc(-n2nnc(-c3ccc(S(=O)(=O)N[C@H](Cc4ccccc4)C(=O)O)cc3)n2)cc1 [Compound I-2] |
| 0.029 | NCCc1ccc(-n2nnc(-c3ccc(S(=O)(=O)N[C@H](Cc4ccccc4)C(=O)O)cc3)n2)cc1 [Compound I-3] |
| 0.0082 | CS(=O)(=O)OCCc1ccc(-n2nnc(-c3ccc(S(=O)(=O)N[C@H](Cc4ccccc4)C(=O)O)cc3)n2)cc1 [Compound I-4] |
| 0.0179 | CCCCc1ccc(-n2nnc(-c3ccc(S(=O)(=O)N[C@H](Cc4ccccc4)C(=O)O)cc3)n2)cc1 [Compound I-5] |
| 0.0485 | CSc1ccc(-c2nnn(-c3ccc(S(=O)(=O)N[C@H](Cc4ccccc4)C(=O)O)cc3)n2)cc1 [Compound J-1] |
| > 10 | O=C(O)[C@H](Cc1ccccc1)NS(=O)(=O)c1ccc(-n2nnc(-c3ccc4ccccc4c3)n2)cc1 [Compound J-3] |
| 0.0202 | CSc1ccc(-c2ccc(S(=O)(=O)NC(C(=O)O)C(C)C)cc2)s1 (stereo not shown) [Compound K-1] |
| 0.0116 | CCCCc1ccc(-c2ccc(-c3ccc(S(=O)(=O)N[C@@H](C(=O)O)C(C)C)cc3)s2)cc1 [Compound K-2] |
| 0.095 | Cc1ccc(-c2ccc(-c3ccc(S(=O)(=O)N[C@H](C)C(=O)O)cc3)s2)cc1 [Compound K-3] |
| 0.0938 | CSCC[C@@H](NS(=O)(=O)c1ccc(-c2ccc(-c3ccc(C)cc3)s2)cc1)C(=O)O [Compound K-4] |
| 0.00526 | CSc1ccc(-c2ccc(-c3ccc(S(=O)(=O)N[C@@H](C(=O)O)C(C)C)cc3)s2)cc1 [Compound K-5] |
| 0.225 | Cc1ccc(-c2ccc(-c3ccc(S(=O)(=O)N[C@H](CC(C)C)C(=O)O)cc3)s2)cc1 [Compound K-6] |
| 0.031 | Cc1ccc(-c2ccc(-c3ccc(S(=O)(=O)N[C@@H](C(=O)O)C(C)C)s3)s2)cc1 [Compound L-1] |
| 0.0147 | CSc1ccc(-c2ccc(-c3ccc(S(=O)(=O)N[C@@H](C(=O)O)C(C)C)s3)s2)cc1 [Compound L-2] |
| 0.109 | Cc1ccc(-c2ccc(-c3ccc(S(=O)(=O)N[C@H](Cc4ccccc4)C(=O)O)s3)s2)cc1 [Compound L-3] |
| 0.281 | Cc1ccc(-c2ccc(-c3ccc(S(=O)(=O)NCC(=O)O)s3)s2)cc1 [Compound L-4] |
| 0.134 | Cc1ccc(-c2ccc(-c3ccc(S(=O)(=O)N[C@H](C(=O)O)C(C)C)s3)s2)cc1 [Compound L-5] |
| > 10 | COc1ccc2cc(-c3nc(-c4ccc(S(=O)(=O)N[C@H](C)C(=O)O)cc4)cs3)ccc2c1 [Compound M-2] |
| 0.07 | O=C(O)[C@@H](Cc1ccccc1)NS(=O)(=O)c1ccc(-c2ccc3ccccc3c2)s1 [Compound N-4] |
| 0.114 | O=C(O)[C@@H](Cc1ccccc1)NS(=O)(=O)c1ccc(-c2ncc(-c3ccccc3)s2)s1 [Compound N-7] |

— patent US20050227994A1, “Decomposition inhibitor for extracellular matrix of cartilage” (Shionogi & Co., Ltd., priority 2002, published 2005)
